Drawing on publication PMC3081901 (Bioorganic & medicinal chemistry letters, 2010), this text covers Ki for one molecule.

This test has as its target T1, human A1 AR (Homo sapiens, UniProt P30542).
T1 sequence (P30542 1-326): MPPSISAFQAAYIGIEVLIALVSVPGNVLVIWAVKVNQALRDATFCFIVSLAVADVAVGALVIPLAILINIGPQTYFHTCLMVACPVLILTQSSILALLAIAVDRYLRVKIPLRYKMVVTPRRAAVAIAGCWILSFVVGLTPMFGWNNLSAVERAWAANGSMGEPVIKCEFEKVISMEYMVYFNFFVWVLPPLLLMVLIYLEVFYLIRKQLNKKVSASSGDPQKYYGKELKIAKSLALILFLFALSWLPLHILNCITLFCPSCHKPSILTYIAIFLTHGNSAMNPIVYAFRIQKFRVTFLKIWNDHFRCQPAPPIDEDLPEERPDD
As to the kind of experiment: Competition radioligand binding, human A1 AR.

The molecule `Nc1nc2c(cnn2CCCc2ccc(OCC(=O)NCCNCCNC(=O)CCCCCNC(=O)COc3ccc(/C=C/C4=[N+]5C(=Cc6ccc(-c7ccc[nH]7)n6[B-]5(F)F)C=C4)cc3)cc2)c2nc(-c3ccco3)nn12` [Compound 14] came in with a Ki of 4.18 ± 0.92 µM.
